# Laboratory results published in US8568736B2, “Polypeptide derivatives of parathyroid hormone (PTH)” (The General Hospital Corporation, priority 1999, dated 2013).
# “And” between values parts separate entries of the source, which are not always exact repeats. Equal entries are not always repeated. No end group written: not given here.
# Key:
# [1] = system: truncated PTH-1 receptor rP1R-ΔNt; assay: cAMP with truncated rat PTH-1 receptor lacking the N-terminal extracellular domain (rP1R-ΔNt); format: cell-based; settings: COS-7 cells expressing rP1R-ΔNt
# [2] = target: PTH-1 receptors; settings: cells expressing (high levels of) PTH-1 receptors; Luck et al. 1999; read-out: EC50 adenyl cyclase/cAMP; cited from earlier work
# [3] = system: truncated PTH-1 receptor rP1R-ΔNt; settings: Luck et al. 1999; cited from earlier work
# [4] = target: T1, PTH-1 receptor (Homo sapiens, UniProt Q03431); assay: Competition binding with 125I-rPTH(1-34) in HKRK-B7 cells; set-up: expressed in transfected cells; host or cells: LLC-PK1 porcine kidney cells, clone HKRK-B7; settings: 125I-rPTH(1-34) tracer
# T1 sequence (Q03431 27-593): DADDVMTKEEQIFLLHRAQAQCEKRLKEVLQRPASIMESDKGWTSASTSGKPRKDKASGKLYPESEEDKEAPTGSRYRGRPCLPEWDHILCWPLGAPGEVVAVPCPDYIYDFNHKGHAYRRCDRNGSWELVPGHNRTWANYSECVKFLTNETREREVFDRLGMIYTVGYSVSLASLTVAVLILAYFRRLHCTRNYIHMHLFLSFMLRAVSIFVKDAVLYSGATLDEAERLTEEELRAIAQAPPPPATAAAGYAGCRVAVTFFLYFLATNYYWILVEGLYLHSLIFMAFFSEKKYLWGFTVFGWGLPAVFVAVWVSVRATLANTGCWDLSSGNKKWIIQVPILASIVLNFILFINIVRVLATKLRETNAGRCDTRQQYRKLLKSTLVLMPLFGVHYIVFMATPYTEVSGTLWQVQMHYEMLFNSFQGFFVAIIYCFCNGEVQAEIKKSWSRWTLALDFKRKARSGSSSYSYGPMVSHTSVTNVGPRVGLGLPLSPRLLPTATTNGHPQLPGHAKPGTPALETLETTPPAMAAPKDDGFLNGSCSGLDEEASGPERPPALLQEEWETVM
# Experimental: Binding reactions were performed with stably transfected HKRK-B7 cells in 24-well plates. Cells were rinsed with 0.5 mL of binding buffer (50 mM Tris-HCl, 100 mM NaCl, 5 mM KCl, 2 mM CaCl2, 5% heat-inactivated horse serum, 0.5% fetal bovine serum, adjusted to pH 7.7 with HCl), and treated successively with 100 μL binding buffer, 100 μL of binding buffer containing various amounts of unlabeled competitor ligand, and 100 μL of binding buffer containing ca. 100,000 cpm of ^125I-rPTH(1-34) (ca. 26 fmol). Incubations (final volume=300 μL) were at 15° C. for 4 h. Cells were then placed on ice, the binding medium was removed, and the monolayer was rinsed three times with 0.5 mL of cold binding buffer. The cells were subsequently lysed with 0.5 mL 5N NaOH and counted for radioactivity. The nonspecific binding for each experiment was determined by competition with a 1 μM dose of unlabeled rPTH(1-34). The maximum specific binding (B0) was the total radioactivity bound in the absence of unlabeled PTH ligand, corrected for nonspecific binding. Binding IC50 values were determined using nonlinear regression (see below).
# All calculations were performed using Microsoft Excel. […] The predicted response (yp) for a given dose (x) of peptide was calculated using the following equation: yp=Min+[(Max−Min)/(1+(EC50/x)^slope)]. […]
substance,measurement,setting,value
"AVSEIQLMHNLGKH-NH2 [native rPTH(1-14), AVSEIQLMHNLGKH, reference compound]",cAMP formation with rP1R-ΔNt (in words),[1],stimulated cAMP formation
same,EC50,[2],~100 µM and 100 µM
same,potency with truncated vs intact rPTH-1 receptor (in words),[3],as potent
AVAEIQLMHARAKHLNSMERVEWLRKKLQDVHNY-NH2 [Peptide #7],improvement in binding affinity as compared to rPTH(1-34),[4],about 2 fold
